Assay results as given in US6887895B2, “Pseudolaric acid-B derivatives, their preparation and pharmaceutical compositions” (Shanghai Institute of Materia Medica Chinese Academy of …, priority 2001, dated 2005).
Converted amounts (≈) assume the structure as drawn. Where two headings read alike, the source gives them in different places.

Columns and labels:
[1] = test system: A549 human lung adenocarcinoma cells; experiment: A549 proliferation assay (SRB); format: cell-based
Procedure: (§1) To evaluate the anti-tumor pharmacological activity of the compounds of the invention, the anti-proliferation activity thereof was assayed using P388 murin leukemia cells and A549 human lung adenocarcinoma cells; the anti-angiogenic activity, a newer target of antitumor, was measured using human microvascular endothelial cells (HMEC). Pseudolarix acid-B and hydroxycamptothecin were used as reference compounds in the evaluation.
(§2) P388, A549 and HMEC Proliferation Assay
(§3) Materials: DMEM was purchased from Gibco (Life Technologies, Grand Island, N.Y., USA). Sulforodamine B (SRB) and MTT were obtained from Sigma; TCA […] and Tris base buffer were analytical pure products made in China.
(§4) SRB assay: Tumor (A549 and HMEC) cells in logarithmic growth were plated in DMEM media in the wells of a 96-well plate (5×10^3 cells/90 μL/well) and serial dilutions of the compounds (10 μL) prepared in medium were added. Experiments at each concentration of compounds were performed in triplicate with controls of normal saline and cell-free withered wells. The plates were incubated at 37° C., 5% CO2, for 72 hr. The media were decanted and cells were fixed with cold (4° C.) 10% trichloroacetic acid, followed by incubation at 4° C. for 1 hr. Then plates were washed with deionised water five times and allowed to air dry and stained by addition of 100 μL/well SRB solution [0.4% SRB (Sigma) in 1% acetic acid (W/V)] for 15 min. Following staining, plates were quickly washed five times with 1% acetic acid to remove unbound dye, and allowed to air dry. Bound dye was solubilized with Tris buffer (pH 10.5) prior to reading plates. The OD was measured with a multiwell spectrophotometer (VERSAmax, Molecular Devices, USA) at a wavelength of 520 nm.
(§5) The rate of inhibition on the growth of cancer cells was calculated by the formula: Rate of growth inhibition=[1−(A520 treated/A520 control)]×100%
(§6) The result was also expressed as IC50 (the drug concentration reducing by 50% the absorbance in treated cells, with respect to untreated cells) that was calculated by Logit method. The mean IC50 was determined according to the data from three independent tests.

[2] = test system: P388 murin leukemia cells; experiment: P388 proliferation assay (MTT); format: cell-based, murine
Procedure: as §1, §2, §3
MTT assay: P388 cells were seeded at a density of 1.5×10^5/ml into wells of 96-well plates and incubated with complete medium. After 24 hr, serial dilutions of the compounds (10 μL) prepared in medium were added. Experiments at each concentration of compounds were performed in triplicate with controls of cell-free withered wells and cell-free withered wells at corresponding concentration of compounds, if it is colored. The plates were incubated at 37° C., 5% CO2, for 48 hr. Then, 20 μL aliquots of MTT (Sigma) solution (5 mg/mL) in saline were added directly to all the appropriate wells. The culture was continuously incubated for 4 hr. Then 50 μL “triplex solution” (10% SDS-5% isobutanol- 0.01M HCl) was added into each well. After the plates were incubated at 37° C. overnight, the values of absorbance at 520 nm were measured by using a plate reader (VERSA Max, Molecular Devices).
as §5, §6

[3] = test system: human microvascular endothelial cells (HMEC); experiment: HMEC proliferation assay (SRB), anti-angiogenic activity; format: cell-based
Procedure: as §1, §2, §3, §4, §5
The result was also expressed as IC50 (the drug concentration reducing by 50% the absorbance in treated cells, with respect to untreated cells) that was calculated by Logit method. […]

[4] = test system: Candida albicans; experiment: Antifungal screening, liquid diluting method; format: cell-based
Source text: Screening on Antifungal Activities The action on Candida albicans was observed using liquid diluting method. The drug concentration in the tube in which no growth of fungus observed is the minimun inhibition concentration.

[5] = test system: Trichophyton rubrum; experiment: Antifungal screening, agar diluting method; format: cell-based
Source text: Screening on Antifungal Activities
The action on Trichophyton rubrum was observed using agar diluting method. The drug concentration in the Petridish on which no growth of fungus observed is the minimun inhibition concentration.

[6] = test system: Sarcoma 180 cell; experiment: Sarcoma 180 tumor growth inhibition in mice; format: in vivo, Kunming strain female mice; details: for Tumor weight: S-180 mice; for Inhibition %: tumor growth vs control
Procedure: (§7) 30 Kunming strain female mice weighing 18-22 g were used. Suspensions of well grown Sarcoma 180 cell were implanted subcutaneously into the right axilla region of the mice, about 4.5-5×10^6 cells/mouse. The animals were grouped randomly 24 hours after the implantation. Daily treatment with drugs or normal saline commenced 1 day after implantation of S-180 cells. Mice were administered by i.p. injection with vehicle or compounds once a day for consecutive 6 days. All the mice were euthanized after the last administration. The mice and the tumors were weighed. The average weights of tumors of each group were calculated and rate of inhibition of tumor growth in vivo was calculated using the following formula: [formula]

[7] = Body weight of Sarcoma 180-bearing mice under treatment; format: in vivo, Kunming strain female mice
Procedure: as §7

[8] = Homo sapiens, A549 cells, SRB, 72 hr, read-out: IC50
[9] = Mus musculus, P388 cells, MTT, 48 hr, read-out: IC50
[10] = 5 mg/kg i.p. once a day for 6 days
[11] = 10 mg/kg i.p. once a day for 6 days
[12] = 15 mg/kg i.p. once a day for 6 days

Question: Which IC50 [1, 8] does the source give for `COC(=O)C1=CC[C@]23CC[C@H](C(C)(/C=C/C=C(\C)C(=O)Nc4cccc(O)c4)OC2=O)[C@]3(OC(C)=O)CC1` (stereo partly shown) [PEX-15Y] here?
Answer: 150 nM

Question: For `COC(=O)C1=CC[C@]23CC[C@H](C(C)(/C=C/C=C(\C)C(=O)O)OC2=O)[C@]3(OC(=O)Cc2ccc(Cl)cc2)CC1` (stereo partly shown) [PEX-24Y], which IC50 [2, 9] is on record?
Answer: 0.26 nM

Question: And the IC50 [1, 8]?
Answer: 69 nM

Question: What does the source list for `CC(=O)O[C@@]12CCC(C(=O)OCc3ccco3)=CC[C@@]13CC[C@@H]2C(C)(/C=C/C=C(\C)C(=O)O)OC3=O` (stereo partly shown) [PEX-25Y]?
Answer: IC50 [2, 9]: < 0.1 nM; IC50 [1, 8]: 55 nM; IC50 ([3]; Homo sapiens, HMEC cells, SRB, 72 hr, read-out: IC50): 1 nM; MIC ([4]; Candida albicans, read-out: MIC (μg/ml) (Candida albicans)): 6.25 µg/mL (≈ 12.5 µM); MIC ([5]; Trichophyton rubrum, read-out: MIC (μg/ml) (Trichophyton rubrum)): 12.5 µg/mL (≈ 25.1 µM); Tumor weight [6, 10]: 0.30 ± 0.23 g; Inhibition % [6, 10]: 64.3%; Tumor weight [6, 11]: 0.26 ± 0.11 g; Inhibition % [6, 11]: 69.0%; Tumor weight [6, 12]: 0.28 ± 0.13 g; Inhibition % [6, 12]: 66.7%; Body weight (g) At last ([7]; 5 mg/kg i.p. once a day for 6 days, beginning 20.4 g): 21.1 g; Body weight (g) At last ([7]; 10 mg/kg i.p. once a day for 6 days, beginning 20.4 g): 19.7 g; Body weight (g) At last ([7]; 15 mg/kg i.p. once a day for 6 days, beginning 20.5 g): 21.2 g

Question: What does the source list for `CC(=O)O[C@@]12CCC(C(=O)OCC3CCCCC3)=CC[C@@]13CC[C@@H]2C(C)(/C=C/C=C(\C)C(=O)O)OC3=O` (stereo partly shown) [PEX-31Y]?
Answer: IC50 ([2]; Mus musculus, P388, 48 h): < 0.1 nM; IC50 ([1]; Homo sapiens, A549, 72 h): < 0.1 nM

Question: With `COC(=O)C1=CC[C@@]23CC[C@@H]([C@@](C)(/C=C/C=C(\C)C(=O)O)OC2=O)[C@@]3(OC(C)=O)CC1` [Pseudolarix acid-B, pseudolaric acid B, reference compound] as the compound, how does the IC50 ([2]; P388 cells, MTT, 48 hr, read-out: IC50) read?
Answer: 0.83 nM

Question: And the IC50 ([1]; A549 cells, SRB, 72 hr, read-out: IC50)?
Answer: 28 nM

Question: What about the IC50 ([3]; HMEC cells, SRB, 72 hr, read-out: IC50) of the same compound?
Answer: 80 nM

Question: And the “MIC (μg/ml) (Candida albicans)” value [4]?
Answer: 12.5 µg/mL (≈ 28.9 µM)

Question: And the “MIC (μg/ml) (Trichophyton rubrum)” value [5]?
Answer: 50.0 µg/mL (≈ 116 µM)

Question: For `CC[C@@]1(O)C(=O)OCc2c1cc1n(c2=O)Cc2cc3cc(O)ccc3nc2-1` [hydroxycamptothecin], which IC50 ([3]; Homo sapiens, HMEC, 72 h) is on record?
Answer: 470 nM
